Data set [1] in a line: Rat tissue distribution 15 min after intravenous bolus. It counts as in vivo. The note with it: rats; for Kp at 15 min: Sprague-Dawley, rat, brain. As for the experimental part: Figure 3 Pharmacokinetic analysis and tissue distribution of PCiv. (A) Pharmacokinetic analysis of blood PCiv levels at each indicated time point following intravenous or oral administration of PCiv (10 mg/kg) determined by ultra-performance liquid chromatography (n = 4 rats for oral and 5 rats for intravenous administration). (B) Quantification of PCiv levels in each indicated tissue (ng/g tissue weight) determined by ultra-performance liquid chromatography (n = 3 rats, tissues collected 15 min after intravenous PCiv administration (10 mg/kg). PCiv was dissolved in a vehicle (DMSO:PEG400:saline ratio of 5:70:25) for solubilization. The quantified data are expressed as means ± standard deviations.
In vivo rat pharmacokinetic studies were performed for intravenous and oral administration of PCiv as previously reported. Sprague-Dawley rats (8 weeks old, 260–280 g) were purchased from Orient Bio Inc. (Seongnam, Korea). Rats were maintained with free access to food and water under a 12:12 h light/dark cycle for 1 week. For pharmacokinetic studies, under anesthetic conditions (20 mg/kg tiletamine/zolazepam [Zoletil; Vibrac Laboratories, Carros, France] administered intramuscularly), the femoral vein and artery were surgically cannulated using polyethylene tubing (PE50; Clay Adams, Parsippany, NJ, USA) in fasted rats. Then, PCiv was administered intravenously and orally at a dose of 10 mg/kg (n = 4–5). The drug was dissolved in a vehicle (DMSO:PEG400:saline at a ratio of 5:70:25). Blood samples (approximately 100 μL) were collected at predetermined time points (0, 1, 5 (intravenous administration only), 15, 30, 60, 120, 180, 240, 360, and 480 min) after drug administration. […] The PCiv level was determined using a CapcellpakTM C18 5 μm column (250 × 1.5 mm, Shiseido Fine Chemical Co., Tokyo, Japan), as previously described. […] The tissue concentration levels were calculated as the PCiv amount (ng) per gram of organ weight.

Data set [2] concerns α-synuclein PFF-treated mice cortical neurons. In words: PFF-induced neurotoxicity in cortical neurons, CCK-8 assay. The class given is cell-based, mouse. The note with it: CCK-8, 14 days PFF, 1 μM every 2 days. Here is the method:
Figure 2 PCiv prevents α-synuclein aggregation in vitro and in cultured neurons with PFF treatment. (A) Representative Western blots showing the degree of recombinant α-synuclein (αSyn) aggregation in a test tube in the presence or absence of PCiv (100 μM) at the indicated incubation duration (phosphate-buffered saline [PBS], 37 °C for 3 or 5 days). Aggregation of α-synuclein was determined using α-synuclein antibody. (B) Quantification of the relative amount of α-synuclein aggregate in high molecular weight sizes in panel A (n = 3 per group). (C) Representative immunofluorescence of MAP2 and Lewy-like inclusion marker pS129-αSyn in mice cortical neurons treated with α-synuclein preformed fibril (PFF) (1 μg, for 14 days). […] (D) Quantification of pS129-αSyn immunofluorescence signal intensities in MAP2-positive cortical neurons in each experimental group (n = 15 cells from three separate experiments). (E) Cell viability assessment in the indicated experimental groups was monitored by CCK-8 assay (n = 3 per group). The data are expressed as means ± SEMs. * p < 0.05, ** p < 0.01, *** p < 0.001, and **** p < 0.0001, ANOVA test followed by Tukey’s post hoc analysis.
CD1 mice were purchased from Orient Co. for use in the mouse primary neuron culture. […] The optical value was read at 450 nm using a multi-detection microplate reader (Synergy, BioTek Instruments Inc., Winooski, VT, USA).

Details of data set [3]: method as in PMID 31689937. The settings on record: intraperitoneal administration in mice; cited from earlier work.

The values below come from paper PMC9369442, “Synthetic Peucedanocoumarin IV Prevents α-Synuclein Neurotoxicity in an Animal Model of Parkinson’s Disease” (International Journal of Molecular Sciences, 2022).

Read-outs that look alike come from different tables or passages of the source.

For the compound `C/C=C(\C)C(=O)O[C@H]1[C@H](OC(C)=O)c2c(ccc3ccc(=O)oc23)OC1(C)C` (relative stereo) [PCiv, trans-4′-acetyl-3′-tigloylkhellactone], the Kp at 15 min stood at 6.4 in data set [1] (15 min after intravenous 10 mg/kg, read-out: brain tissue-to-plasma concentration ratio) and 6.4 in data set [1] (intravenous, 10 mg/kg, read-out: distribution to target organ compared with the plasma concentration). The “tissue-to-plasma concentration ratio, liver and kidneys” value in data set [1] (15 min after intravenous 10 mg/kg) is recorded as “low”. Moreover, the “PFF-induced neurotoxicity (neuron viability)” value in data set [2] is “prevented”.
Regarding `C/C=C(\C)C(=O)O[C@@H]1c2c(ccc3ccc(=O)oc23)OC(C)(C)[C@H]1OC(C)=O` (relative stereo) [PCiii, peucedanocoumarin III], the brain distribution result in data set [3] is “demonstrated brain distribution”. Also, the “PFF-induced neurotoxicity (neuron viability)” value in data set [2] is on record as “prevented”.
